Experimental data reported in ChEMBL document CHEMBL1201862, “PubChem BioAssay data set” (2004).
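Following 48 hours of exposure in 96-well plates, responses at five concentrations were used to interpolate endpoints linearly. At the GI50, growth is halved.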 Activity calls are given as the source filed them. Cut-off read from the data, not from the text of the source: active = GI50 up to about 1.1 µM and inactive = higher.

Legend:
Assay in all cases: NCI anticancer screen, dose series, 48 h
[1] = system: HCC 2998
[2] = system: HT-29
[3] = system: DMS-273
[4] = system: RPMI-8226
[5] = system: NCI-H23
[6] = system: OVCAR-8
[7] = system: U-251
[8] = system: A549
[9] = system: IGROV-1
[10] = system: SNB-19
[11] = system: SK-MEL-2
[12] = system: M14
[13] = system: SW-620
[14] = system: K562
[15] = system: Malme-3M
[16] = system: NCI/ADR-RES
[17] = system: HCT-116
[18] = system: HOP-92
[19] = system: HOP-62
[20] = system: NCI-H226

COc1ccc2n[se]nc2c1
GI50 [1]: 38.6 µM (inactive)
GI50 [2]: > 100 µM (inactive)
GI50 [3]: > 100 µM (inactive)
GI50 [4]: > 100 µM (inactive)
GI50 [5]: > 100 µM (inactive)
GI50 [6]: > 100 µM (inactive)
GI50 [7]: > 100 µM (inactive)
GI50 [8]: 45.5 µM (inactive)
GI50 [9]: 38.9 µM (inactive)
GI50 [10]: 69.2 µM (inactive)
GI50 [11]: 41.5 µM (inactive)
GI50 [12]: > 100 µM (inactive)
GI50 [13]: > 100 µM (inactive)
GI50 [14]: > 100 µM (inactive)
GI50 [15]: 65.8 µM (inactive)

CC12CN(CC[N+](C)(C)C)CC1(C)C1CCC2O1 (centres undefined)
GI50 [1]: > 100 µM (inactive)
GI50 [16]: > 100 µM (inactive)
GI50 [17]: > 100 µM (inactive)
GI50 [2]: > 100 µM (inactive)
GI50 [4]: > 100 µM (inactive)
GI50 [5]: > 100 µM (inactive)
GI50 [6]: > 100 µM (inactive)
GI50 [18]: > 100 µM (inactive)
GI50 [7]: > 100 µM (inactive)
GI50 [8]: > 100 µM (inactive)
GI50 [9]: > 100 µM (inactive)
GI50 [19]: > 100 µM (inactive)
GI50 [10]: > 100 µM (inactive)
GI50 [11]: > 100 µM (inactive)
GI50 [12]: > 100 µM (inactive)
GI50 [13]: > 100 µM (inactive)
GI50 [14]: > 100 µM (inactive)
GI50 [15]: > 100 µM (inactive)
GI50 [20]: > 100 µM (inactive)

CNCC(SC)c1ccc(O)c(O)c1 (centres undefined)
GI50 [1]: 16.7 µM (inactive)
GI50 [16]: 34.9 µM (inactive)
GI50 [17]: 20.7 µM (inactive)
GI50 [2]: 30.7 µM (inactive)
GI50 [4]: 21.1 µM (inactive)
GI50 [5]: 31 µM (inactive)
GI50 [6]: 19.2 µM (inactive)
GI50 [18]: 20.4 µM (inactive)
GI50 [7]: 61.1 µM (inactive)
GI50 [8]: > 100 µM (inactive)
GI50 [9]: 34.3 µM (inactive)
GI50 [19]: 36.4 µM (inactive)
GI50 [10]: > 100 µM (inactive)
GI50 [11]: > 100 µM (inactive)
GI50 [12]: 52.8 µM (inactive)
GI50 [13]: 19.4 µM (inactive)
GI50 [14]: 23.7 µM (inactive)
GI50 [15]: 17.5 µM (inactive)
GI50 [20]: > 100 µM (inactive)

NNC(=O)c1ccccc1Nc1nc(-c2cccs2)nc2ccc(Br)cc12
GI50 [1]: 90.4 µM (inactive)
GI50 [16]: > 100 µM (inactive)
GI50 [17]: 70 µM (inactive)
GI50 [2]: 78.5 µM (inactive)
GI50 [4]: > 100 µM (inactive)
GI50 [5]: > 100 µM (inactive)
GI50 [6]: 55 µM (inactive)
GI50 [18]: > 100 µM (inactive)
GI50 [7]: 23.2 µM (inactive)
GI50 [8]: 85.1 µM (inactive)
GI50 [9]: > 100 µM (inactive)
GI50 [19]: > 100 µM (inactive)
GI50 [10]: 53.3 µM (inactive)
GI50 [11]: > 100 µM (inactive)
GI50 [12]: 86.7 µM (inactive)
GI50 [13]: > 100 µM (inactive)
GI50 [14]: 77.6 µM (inactive)
GI50 [15]: > 100 µM (inactive)
GI50 [20]: > 100 µM (inactive)

CCOC(=O)C1(N)CCc2[nH][nH]c(=O)c2C1 (centres undefined)
GI50 [1]: > 100 µM (inactive)
GI50 [16]: > 100 µM (inactive)
GI50 [17]: > 100 µM (inactive)
GI50 [2]: > 100 µM (inactive)
GI50 [4]: > 100 µM (inactive)
GI50 [5]: > 100 µM (inactive)
GI50 [6]: > 100 µM (inactive)
GI50 [18]: > 100 µM (inactive)
GI50 [7]: > 100 µM (inactive)
GI50 [8]: > 100 µM (inactive)
GI50 [9]: > 100 µM (inactive)
GI50 [19]: > 100 µM (inactive)
GI50 [10]: > 100 µM (inactive)
GI50 [11]: > 100 µM (inactive)
GI50 [12]: > 100 µM (inactive)
GI50 [13]: > 100 µM (inactive)
GI50 [14]: > 100 µM (inactive)
GI50 [15]: > 100 µM (inactive)
GI50 [20]: > 100 µM (inactive)

C=C1C(=O)O[C@@H]2[C@H]1C[C@H](I)[C@@]1(C)CC[C@H](O1)[C@](C)(I)CCCC(C)[C@@H]2O (some centres undefined)
GI50 [1]: 12.2 µM (inactive)
GI50 [16]: 3.17 µM (inactive)
GI50 [17]: 2.88 µM (inactive)
GI50 [2]: 1.93 µM (inactive)
GI50 [4]: 2.61 µM (inactive)
GI50 [5]: 7.43 µM (inactive)
GI50 [6]: 2.96 µM (inactive)
GI50 [18]: 1.54 µM (inactive)
GI50 [7]: 6.07 µM (inactive)
GI50 [8]: 9.79 µM (inactive)
GI50 [9]: 2.01 µM (inactive)
GI50 [19]: 19.4 µM (inactive)
GI50 [10]: 16.4 µM (inactive)
GI50 [11]: 12.9 µM (inactive)
GI50 [12]: 4.68 µM (inactive)
GI50 [13]: 1.81 µM (inactive)
GI50 [14]: 2.37 µM (inactive)
GI50 [15]: 2.48 µM (inactive)
GI50 [20]: 1.91 µM (inactive)

N#Cc1nc(C#N)n(C(=O)c2ccccc2)c1NC(=O)c1ccccc1
GI50 [1]: > 100 µM (inactive)
GI50 [16]: > 100 µM (inactive)
GI50 [17]: > 100 µM (inactive)
GI50 [2]: > 100 µM (inactive)
GI50 [4]: > 100 µM (inactive)
GI50 [5]: > 100 µM (inactive)
GI50 [6]: > 100 µM (inactive)
GI50 [18]: > 100 µM (inactive)
GI50 [7]: > 100 µM (inactive)
GI50 [8]: > 100 µM (inactive)
GI50 [9]: > 100 µM (inactive)
GI50 [19]: > 100 µM (inactive)
GI50 [10]: > 100 µM (inactive)
GI50 [11]: > 100 µM (inactive)
GI50 [12]: > 100 µM (inactive)
GI50 [13]: > 100 µM (inactive)
GI50 [14]: > 100 µM (inactive)
GI50 [15]: > 100 µM (inactive)
GI50 [20]: > 100 µM (inactive)

O=C(CSc1nnc(Cc2ccccc2)o1)Nc1ccc(Cl)cc1
GI50 [1]: > 100 µM (inactive)
GI50 [17]: > 100 µM (inactive)
GI50 [2]: 47.4 µM (inactive)
GI50 [3]: 67.8 µM (inactive)
GI50 [4]: > 100 µM (inactive)
GI50 [5]: 52.2 µM (inactive)
GI50 [6]: 96.6 µM (inactive)
GI50 [7]: > 100 µM (inactive)
GI50 [8]: > 100 µM (inactive)
GI50 [9]: 92 µM (inactive)
GI50 [19]: > 100 µM (inactive)
GI50 [10]: > 100 µM (inactive)
GI50 [11]: 82 µM (inactive)
GI50 [12]: > 100 µM (inactive)
GI50 [13]: > 100 µM (inactive)
GI50 [14]: 87.7 µM (inactive)
GI50 [15]: > 100 µM (inactive)
GI50 [20]: 86.5 µM (inactive)

CC(Oc1ccc(Cl)cc1Cl)C(=O)NN1C(=O)CC(=O)N(c2ccccc2)C1=S (centres undefined)
GI50 [1]: 63.4 µM (inactive)
GI50 [16]: 39.9 µM (inactive)
GI50 [17]: 35.5 µM (inactive)
GI50 [2]: 70.1 µM (inactive)
GI50 [4]: 30.7 µM (inactive)
GI50 [5]: 37.2 µM (inactive)
GI50 [6]: 50.2 µM (inactive)
GI50 [18]: 24.9 µM (inactive)
GI50 [7]: 41.9 µM (inactive)
GI50 [8]: 47.6 µM (inactive)
GI50 [9]: 55.3 µM (inactive)
GI50 [19]: 56.2 µM (inactive)
GI50 [10]: 66.4 µM (inactive)
GI50 [11]: 42.2 µM (inactive)
GI50 [12]: 73.3 µM (inactive)
GI50 [13]: 53.1 µM (inactive)
GI50 [14]: 41.7 µM (inactive)
GI50 [15]: > 100 µM (inactive)
GI50 [20]: 37.8 µM (inactive)

CCCCCCCCCCCCC(O)[C@H]1CC[C@H](C(O)CCCCCC(=O)CCCCC2CC(C(C)=O)C(=O)O2)O1 (some centres undefined)
GI50 [1]: 16.2 µM (inactive)
GI50 [16]: 3.44 µM (inactive)
GI50 [17]: 1.02 µM (active)
GI50 [2]: 6.73 µM (inactive)
GI50 [4]: 1.65 µM (inactive)
GI50 [5]: 2.22 µM (inactive)
GI50 [6]: 8.97 µM (inactive)
GI50 [18]: 10.4 µM (inactive)
GI50 [7]: 8.87 µM (inactive)
GI50 [8]: 3.7 µM (inactive)
GI50 [9]: 11 µM (inactive)
GI50 [19]: 4.98 µM (inactive)
GI50 [10]: 9.4 µM (inactive)
GI50 [11]: 13.6 µM (inactive)
GI50 [12]: 8.77 µM (inactive)
GI50 [13]: 11.4 µM (inactive)
GI50 [14]: 1.33 µM (inactive)
GI50 [15]: 11.5 µM (inactive)
GI50 [20]: 17.6 µM (inactive)

CC(C)(Cl)C(Br)CCC(C)(Br)C(Br)CBr (centres undefined)
GI50 [1]: 13.1 µM (inactive)
GI50 [16]: 17 µM (inactive)
GI50 [17]: 16 µM (inactive)
GI50 [2]: 15.8 µM (inactive)
GI50 [4]: 19.2 µM (inactive)
GI50 [5]: 19.5 µM (inactive)
GI50 [6]: 16.2 µM (inactive)
GI50 [18]: 21.5 µM (inactive)
GI50 [7]: 16.5 µM (inactive)
GI50 [8]: 30.1 µM (inactive)
GI50 [9]: 19.6 µM (inactive)
GI50 [19]: 16.1 µM (inactive)
GI50 [10]: 23.1 µM (inactive)
GI50 [11]: 14.7 µM (inactive)
GI50 [12]: 17.7 µM (inactive)
GI50 [13]: 16.3 µM (inactive)
GI50 [14]: 23 µM (inactive)
GI50 [15]: 17.4 µM (inactive)
GI50 [20]: 18.8 µM (inactive)
